Test results as given in ChEMBL document CHEMBL1201862, “PubChem BioAssay data set” (2004).
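Five compound concentrations were applied to cells in 96-well plates for 48 hours; endpoints were derived by simple linear interpolation of the resulting dose-response curve. GI50 marks 50% less growth.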 Calls of active or inactive are those of the source. Cut-off read from the data, not from the text of the source: active = GI50 up to about 1.1 µM and inactive = higher.

Legend:
Experiment in all cases: DTP human tumour cell line panel, 48 h
SNB-19 = tested on: SNB-19
OVCAR-8 = tested on: OVCAR-8
HOP-62 = tested on: HOP-62
HL-60 = tested on: HL-60
PC-3 = tested on: PC-3
U-251 = tested on: U-251
SNB-75 = tested on: SNB-75
M14 = tested on: M14
NCI-H460 = tested on: NCI-H460
786-0 = tested on: 786-0
NCI-H23 = tested on: NCI-H23
SF-539 = tested on: SF-539
DU-145 = tested on: DU-145
SR = tested on: SR
SF-295 = tested on: SF-295
UO-31 = tested on: UO-31
MOLT-4 = tested on: MOLT-4
COLO 205 = tested on: COLO 205
T47D = tested on: T47D
UACC-257 = tested on: UACC-257
Hs-578T = tested on: Hs-578T
SN12C = tested on: SN12C
NCI/ADR-RES = tested on: NCI/ADR-RES
A549 = tested on: A549
RXF 393 = tested on: RXF 393
SK-MEL-5 = tested on: SK-MEL-5
NCI-H226 = tested on: NCI-H226
MCF7 = tested on: MCF7
SK-OV-3 = tested on: SK-OV-3
A498 = tested on: A498
CAKI-1 = tested on: CAKI-1
SK-MEL-28 = tested on: SK-MEL-28
HOP-92 = tested on: HOP-92
IGROV-1 = tested on: IGROV-1
OVCAR-4 = tested on: OVCAR-4
SK-MEL-2 = tested on: SK-MEL-2
KM12 = tested on: KM12
OVCAR-3 = tested on: OVCAR-3
MDA-N = tested on: MDA-N
SF-268 = tested on: SF-268
HT-29 = tested on: HT-29
HCT-116 = tested on: HCT-116
Malme-3M = tested on: Malme-3M
UACC-62 = tested on: UACC-62
BT-549 = tested on: BT-549
LOX IMVI = tested on: LOX IMVI
MDA-MB-435 = tested on: MDA-MB-435
OVCAR-5 = tested on: OVCAR-5
SW-620 = tested on: SW-620
EKVX = tested on: EKVX
NCI-H522 = tested on: NCI-H522
HCT-15 = tested on: HCT-15
ACHN = tested on: ACHN
TK-10 = tested on: TK-10
RPMI-8226 = tested on: RPMI-8226
HCC 2998 = tested on: HCC 2998
K562 = tested on: K562
CCRF-CEM = tested on: CCRF-CEM
MDA-MB-231 = tested on: MDA-MB-231

Measured: GI50

CCOC(=O)Cc1ccc(Nc2nc3cc(C(F)(F)F)ccc3nc2C(=O)OCC)cc1
> 100 µM: HCT-15
inactive: SNB-19 27.5 µM | OVCAR-8 67.5 µM | HOP-62 35 µM | HL-60 > 100 µM | PC-3 > 100 µM | U-251 45.2 µM | SNB-75 20.7 µM | M14 > 100 µM | NCI-H460 > 100 µM | 786-0 23.5 µM | NCI-H23 34.6 µM | SF-539 14.7 µM | DU-145 > 100 µM | SR > 100 µM | SF-295 63.2 µM | UO-31 > 100 µM | MOLT-4 > 100 µM | COLO 205 > 100 µM | T47D > 100 µM | UACC-257 > 100 µM | Hs-578T 30 µM | SN12C > 100 µM | NCI/ADR-RES > 100 µM | A549 > 100 µM | RXF 393 20.5 µM | SK-MEL-5 > 100 µM | NCI-H226 17.6 µM | MCF7 94.4 µM | SK-OV-3 51.4 µM | A498 32.7 µM | CAKI-1 30.1 µM | SK-MEL-28 > 100 µM | HOP-92 38.8 µM | IGROV-1 > 100 µM | OVCAR-4 18.9 µM | SK-MEL-2 61.1 µM | KM12 > 100 µM | OVCAR-3 > 100 µM | MDA-N > 100 µM | SF-268 37.3 µM | HT-29 > 100 µM | HCT-116 81.8 µM | Malme-3M > 100 µM | UACC-62 48.8 µM | BT-549 77.1 µM | LOX IMVI > 100 µM | MDA-MB-435 > 100 µM | OVCAR-5 > 100 µM | SW-620 > 100 µM | EKVX > 100 µM | NCI-H522 50.8 µM | ACHN 33 µM | TK-10 49.3 µM

COc1ccc2cc(Oc3ccc(Cl)cc3)c(=O)oc2c1
inactive: SNB-19 > 100 µM | OVCAR-8 > 100 µM | HOP-62 50.1 µM | HL-60 > 100 µM | PC-3 > 100 µM | RPMI-8226 > 100 µM | U-251 > 10 µM | HCC 2998 > 10 µM | SNB-75 > 100 µM | M14 > 100 µM | NCI-H460 > 100 µM | 786-0 > 100 µM | NCI-H23 > 100 µM | SF-539 > 100 µM | DU-145 > 100 µM | SR > 100 µM | SF-295 60.5 µM | UO-31 > 100 µM | MOLT-4 > 100 µM | T47D > 100 µM | UACC-257 > 100 µM | Hs-578T > 100 µM | SN12C > 100 µM | A549 > 100 µM | RXF 393 > 100 µM | K562 > 100 µM | SK-MEL-5 > 100 µM | NCI-H226 > 100 µM | MCF7 > 100 µM | CCRF-CEM > 100 µM | A498 93.5 µM | CAKI-1 > 100 µM | SK-MEL-28 > 100 µM | HOP-92 > 100 µM | IGROV-1 > 100 µM | OVCAR-4 > 100 µM | MDA-MB-231 > 100 µM | KM12 > 100 µM | OVCAR-3 > 100 µM | MDA-N > 100 µM | SF-268 50.8 µM | HT-29 > 100 µM | HCT-116 > 100 µM | Malme-3M > 100 µM | BT-549 > 100 µM | LOX IMVI > 100 µM | OVCAR-5 > 100 µM | SW-620 > 100 µM | EKVX > 100 µM | NCI-H522 > 100 µM | ACHN > 100 µM | TK-10 > 100 µM
> 100 µM: HCT-15

CC1=NN(c2nc(N)nc(/C(C#N)=C/c3ccncc3)n2)C(C)(C)C1
> 100 µM: HCT-15
inactive: SNB-19 > 100 µM | OVCAR-8 > 100 µM | HOP-62 > 100 µM | HL-60 52.1 µM | PC-3 > 100 µM | RPMI-8226 > 100 µM | U-251 > 100 µM | HCC 2998 > 100 µM | SNB-75 > 100 µM | M14 > 100 µM | NCI-H460 > 100 µM | 786-0 > 100 µM | NCI-H23 > 100 µM | SF-539 > 100 µM | DU-145 47.4 µM | SR 74.6 µM | SF-295 > 100 µM | UO-31 > 100 µM | MOLT-4 > 100 µM | COLO 205 > 100 µM | T47D > 100 µM | UACC-257 > 100 µM | Hs-578T > 100 µM | NCI/ADR-RES > 100 µM | RXF 393 32 µM | K562 13.5 µM | SK-MEL-5 > 100 µM | NCI-H226 > 100 µM | MCF7 91.8 µM | SK-OV-3 > 100 µM | CCRF-CEM 49.3 µM | A498 60.3 µM | CAKI-1 > 100 µM | SK-MEL-28 > 100 µM | HOP-92 > 100 µM | IGROV-1 > 100 µM | OVCAR-4 > 100 µM | MDA-MB-231 > 100 µM | SK-MEL-2 > 100 µM | KM12 > 100 µM | SF-268 > 100 µM | HT-29 > 100 µM | HCT-116 > 100 µM | UACC-62 > 100 µM | BT-549 > 100 µM | LOX IMVI > 100 µM | MDA-MB-435 > 100 µM | SW-620 > 100 µM | EKVX > 100 µM | ACHN > 100 µM | TK-10 > 100 µM
